Measurements from ChEMBL document CHEMBL1155399, “Novel glitazones: design, synthesis, glucose uptake and structure-activity relationships” (Bioorg Med Chem Lett, 2010).

Assays:
[1] = Antidiabetic activity in Wistar rat hemidiaphragm assessed as glucose uptake at 2 mg after 45 mins by GOD/POD enzymatic method in absence of insulin; settings: Diaphragm
[2] = Antidiabetic activity in Wistar rat hemidiaphragm assessed as glucose uptake at 2 mg after 45 mins by GOD/POD enzymatic method in presence of insulin; settings: Diaphragm

Work on COc1ccc(NC(=O)COc2ccc(CC3SC(=S)NC3=O)cc2OC)cc1 (configuration not stated) yielded an Activity [1] of 9.5 mg/g and an Activity [2] of 28.2 mg/g.

Work on COc1ccc(NC(=O)COc2ccc(/C=C3/SC(=O)NC3=O)cc2OC)cc1 yielded an Activity [1] of 10.8 mg/g and an Activity [2] of 36.2 mg/g.

COc1cc(/C=C2/SC(=S)NC2=O)ccc1OCC(=O)NCc1ccccc1 gave an Activity [1] of 10.2 mg/g and an Activity [2] of 26.8 mg/g.

Molecule COc1cc(/C=C2/SC(=O)NC2=O)ccc1OCC(=O)Nc1ccccc1[N+](=O)[O-] has an Activity [1] of 9.75 mg/g and an Activity [2] of 26.2 mg/g.

Molecule COc1cc(/C=C2/SC(=O)NC2=O)ccc1OCC(=O)NCc1ccccc1 has an Activity [1] of 10.5 mg/g and an Activity [2] of 31.8 mg/g.

Molecule COc1cc(/C=C2/SC(=S)NC2=O)ccc1OCC(=O)Nc1ccccc1[N+](=O)[O-] has an Activity [1] of 9 mg/g and an Activity [2] of 25.5 mg/g.

Work on COc1cc(/C=C2/SC(=O)NC2=O)ccc1OCC(=O)Nc1ccccc1C(N)=O yielded an Activity [1] of 10 mg/g and an Activity [2] of 29 mg/g.

Work on COc1ccc(NC(=O)COc2ccc(CC3SC(=O)NC3=O)cc2OC)cc1 (configuration not stated) yielded an Activity [1] of 11.2 mg/g and an Activity [2] of 30.2 mg/g.

CN(CCOc1ccc(CC2SC(=O)NC2=O)cc1)c1ccccn1 (configuration not stated) showed an Activity [1] of 11.2 mg/g and an Activity [2] of 35.2 mg/g.

For COc1cc(/C=C2/SC(=O)NC2=O)ccc1OCC(=O)NC1CCCCC1, the Activity [1] was 9.5 mg/g and the Activity [2] was 27.2 mg/g.

Molecule COc1cc(/C=C2/SC(=S)NC2=O)ccc1OCC(=O)Nc1ccccc1 has an Activity [1] of 8 mg/g and an Activity [2] of 24.8 mg/g.

COc1cc(/C=C2/SC(=O)NC2=O)ccc1OCC(=O)Nc1ccccn1 gave an Activity [1] of 12.2 mg/g and an Activity [2] of 32 mg/g.

Work on COc1ccc(NC(=O)COc2ccc(/C=C3/SC(=S)NC3=O)cc2OC)cc1 yielded an Activity [1] of 9.75 mg/g and an Activity [2] of 33.5 mg/g.

With COc1cc(/C=C2/SC(=S)NC2=O)ccc1OCC(=O)NC1CCCCC1 the Activity [1] was 11.8 mg/g and the Activity [2] was 30 mg/g.

With COc1cc(/C=C2/SC(=O)NC2=O)ccc1OCC(=O)Nc1ccccc1 the Activity [1] was 12 mg/g and the Activity [2] was 28.5 mg/g.

COc1cc(/C=C2/SC(=S)NC2=O)ccc1OCC(=O)Nc1ccccn1 gave an Activity [1] of 9.75 mg/g and an Activity [2] of 30 mg/g.
